Assay results published in US9040714B2 (MannKind Corporation, priority 2010, dated 2015).

Columns and labels:
[1] = tested on: XBP-1 splicing in RPMI 8226 cells; experiment: Inhibition of thapsigargin-induced endogenous XBP-1 splicing in RPMI 8226 cells (RT-PCR); type: cell-based, human; conditions: 300 nM, 2 hours
Experimental: PCR amplification products were run on a 4% agarose gel and stained with ethidium bromide. The inverse image is shown.
Cell Culture. RPMI 8226 cells were grown in monolayer culture using Dulbecco's Modified Eagle Medium (DMEM) supplemented with 10% fetal calf serum (FCS) at 37° C. and 5% CO2. Compounds were kept as 10 mM stock in DMSO at −20° C. and diluted in medium to 10 μM, Thapsigargin (Tg) was resuspended in DMSO and diluted in medium,
RT-qPCR. Procedures for measuring XBP-1s and XBP-1u mRNAs have been described previously (Volkmann et al., J. Biol. Chem. 286, 12743-55, 2011). Briefly, total RNA was harvested from cells or tissue using TRIZOL® (Invitrogen) according to the manufacture's procedures. After ethanol, precipitation and resuspension of the RNA, RIBOGREEN® (Invitrogen) was used to quantify the yield—and normalize the RNA concentration in the source tube containing isolated RNA. RT-PCR was performed by oligo dT priming, […]® II (Invitrogen) and reverse transcription using the […] GOLD® Kit (Applied Biosystems) according to the manufacturer's protocols. Primers for human XBP-1 were
All DNA oligos were purchased from IDT DNA Technologies. PCR reactions were run on a Bio-Rad PTC-100® 96-well thermocycler; heating at 94° C. for 30 seconds, annealing at 58° C. for 30 seconds polymerizing at 72° C. for 30 seconds for 35 cycles. […]

[2] = tested on: human myeloma RPMI8226 tumor xenografts; experiment: RPMI8226 xenograft efficacy model; type: in vivo, SCID mice; conditions: 0.75 mg/kg IV twice weekly
Experimental: SCID mice are evaluated for their ability to support implantation of desired tumor cells in support of model development and characterization. Mice are injected intravenously […] or implanted either subcutaneously (SC) or intraperitoneally (IP). To generate a relevant animal model mimicking human disease, it is desirable that all three approaches are evaluated for improved implantation rates and relevant disease progression, as is well known in the art. SC injections provide an easy way to measure tumor growth and efficacy, and IV and IP injections represent a more physiologically relevant model of human tumor spread. SC injections are given primarily in the flank, while IV injections are administered in the tail vein. Mice are manually restrained for SC and IP injections, and a Broome mouse restrainer is used for IV injections.
SCID mice are implanted with tumor cells (human RPMI8226 myeloma cells) via IP, IV or SC routes based on the results from the xenograft model development studies (above). Mice are treated with compound or mock treated (vehicle) for a period of up to 4-5 weeks. Compound administration can be via IV, IP, PO or SC routes. […]
Mice are monitored for tumor growth, regression and general health. […] Tumor growth is measured by calipers, ultrasound, or by abdominal lavage. Biomarkers in the blood or tumor can evaluated (primarily XBP-1 splicing). […]

[3] = tested on: XBP-1 splicing in liver and kidney; experiment: XBP-1 splicing inhibition in livers and kidneys of mice after tunicamycin; type: in vivo, CB17 SCID mice; conditions: 1 mg/kg IP, relative to PBS treated mice
Source text: The preclinical validation strategy employs a set of animal models representing normal tissues under chemical stress and multiple myeloma xenography. The normal animal model is employed as a surrogate model where dose-related on-target activity of compounds can be confirmed in tissues sensitive to standard UPR inducing agents such as tunicamycin (Wu et al., Dev Cell. 2007 September; 13 (1d):351-64). […] Upon induction with tunicamycin, tissues induce active XBP-1 mRNA, splicing, and this activity is suppressed by IRE-1α inhibitors. This on-target ER stress animal model is a useful screening and early pharmacokinetic tool.
CB17 SCID mice were treated with 1 mg/kg tunicamycin by intraperitoneal (IP) injection at time 0 (T=0). Two hours later, compound A formulated in 10% hydroxy beta propyl cyclo dextran HBPCD was administered by IP injection. Doses were 50 mg/kg, 25 mg/kg and 10 mg/kg (4 mice in each group). Mice were sacrificed two hours later (4 hours from T=0), and the designated organs were harvested (FIG. 3A).
RT-PCR analysis was performed using murine-specific XBP-1 primers from total RNA harvested from specified organs. […] Each lane represents an individual mouse where RNA was harvested and RT-PCR was performed. Method of RNA extraction and RT-PCR analysis is described in Volkmann et al., J. Biol. Chem. 286, 12743-55, 2011. […]

## C/C=C(/C)C(=O)O[C@H]1C(C)=C2[C@H]([C@@H]1OC(=O)CCCCCCC)[C@@](C)(OC(C)=O)C[C@H](OC(=O)CCC)[C@@]1(O)[C@H]2OC(=O)[C@@]1(C)O [Thapsigargin]
[1]
  induction of XBP-1s: near complete conversion of XBP-1u to XBP-1s

## CC(C)C[C@H](NC(=O)[C@H](Cc1ccccc1)NC(=O)c1cnccn1)B(O)O [bortezomib, [(1R)-3-methyl-1-[[(2S)-1-oxo-3-phenyl-2-[(pyrazinylcarbonyl)amino]propyl]amino]butyl]boronic acid]
[2]
  tumor growth: suppression of tumor growth

## tunicamycin
[3]
  induction of XBP-1 spliced (XBP-1s): induces XBP-1 spliced (XBP-1s)
